Measurements as given in ChEMBL document CHEMBL2074400, “Transporter-mediated renal handling of nafamostat mesilate” (J Pharm Sci, 2004).

Target: ATP-dependent translocase ABCB1 (Homo sapiens, UniProt P08183)
Experiment: TP_TRANSPORTER: transepithelial transport in LLC-GA5-COL150 cells
Format: functional, cell-based
Details: pig

Sequence of ATP-dependent translocase ABCB1 (P08183 whole entry): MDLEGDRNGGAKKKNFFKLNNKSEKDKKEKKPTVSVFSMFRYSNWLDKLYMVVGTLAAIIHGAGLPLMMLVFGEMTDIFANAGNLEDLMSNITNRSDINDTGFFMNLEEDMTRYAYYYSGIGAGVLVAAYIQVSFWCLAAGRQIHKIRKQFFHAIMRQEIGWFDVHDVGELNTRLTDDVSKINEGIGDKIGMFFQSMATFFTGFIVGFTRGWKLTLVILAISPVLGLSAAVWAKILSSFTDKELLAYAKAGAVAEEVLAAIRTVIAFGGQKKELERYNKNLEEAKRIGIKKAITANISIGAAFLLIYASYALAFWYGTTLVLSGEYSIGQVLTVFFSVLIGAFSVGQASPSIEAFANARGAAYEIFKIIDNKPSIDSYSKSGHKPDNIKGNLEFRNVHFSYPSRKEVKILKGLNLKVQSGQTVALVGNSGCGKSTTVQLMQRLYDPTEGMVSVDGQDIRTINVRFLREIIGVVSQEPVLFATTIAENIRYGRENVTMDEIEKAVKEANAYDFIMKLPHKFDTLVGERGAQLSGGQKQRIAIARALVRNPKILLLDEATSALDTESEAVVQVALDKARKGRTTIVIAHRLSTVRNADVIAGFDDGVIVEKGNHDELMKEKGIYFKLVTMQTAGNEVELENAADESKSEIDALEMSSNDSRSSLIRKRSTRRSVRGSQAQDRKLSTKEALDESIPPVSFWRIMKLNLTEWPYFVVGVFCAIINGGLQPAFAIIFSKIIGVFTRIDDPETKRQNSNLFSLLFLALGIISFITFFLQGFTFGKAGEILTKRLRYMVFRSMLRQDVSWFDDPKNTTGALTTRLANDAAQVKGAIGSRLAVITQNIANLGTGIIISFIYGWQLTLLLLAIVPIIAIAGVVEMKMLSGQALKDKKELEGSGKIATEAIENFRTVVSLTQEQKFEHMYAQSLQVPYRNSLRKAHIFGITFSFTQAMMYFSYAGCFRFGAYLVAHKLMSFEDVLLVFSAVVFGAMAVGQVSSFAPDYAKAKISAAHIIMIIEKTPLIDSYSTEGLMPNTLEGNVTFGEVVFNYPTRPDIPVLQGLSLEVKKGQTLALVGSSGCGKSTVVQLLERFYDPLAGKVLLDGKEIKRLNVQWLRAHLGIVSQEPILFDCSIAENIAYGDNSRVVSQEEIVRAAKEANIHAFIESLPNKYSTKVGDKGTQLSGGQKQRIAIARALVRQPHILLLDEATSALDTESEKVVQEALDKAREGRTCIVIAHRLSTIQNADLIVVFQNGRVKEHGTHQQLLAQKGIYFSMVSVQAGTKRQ

## CS(=O)(=O)O.N=C(N)Nc1ccc(C(=O)Oc2ccc3cc(C(=N)N)ccc3c2)cc1
  Activity: is not a substrate [-]
